Reference: patent US7235267B1, “Brain cell or nerve cell-protecting agents comprising medicinal ginseng” (priority 1999, dated 2007)

Assays:
Bcl-xL mRNA = test: RT-PCR of Bcl-xL mRNA in cerebral cortex after intravenous ginsenoside Rb1; assay type: in vivo, rat; conditions: intravenous 60 μg/day; 4th and 6th hour after MCA permanent occlusion; vs sham and saline
Procedure: The present inventors investigated whether or not intravenous administration of low doses of ginsenoside Rb1 increases expression of Bcl-xL mRNA in brain tissues. For this purpose, for example, SH-SP rats (body weight 250-300 g), at the age of 12 weeks, were used. Immediately after permanent occlusion of the MCA in SH-SP rats under inhalation anesthesia, ginsenoside Rb1 dissolved in physiological saline was infused once intravenously (60 μg), and subsequently ginsenoside Rb1 was intravenously infused continuously at the dose of 60 μg/day. Control animals with MCA permanent occlusion and sham-operated animals received the same amount of physiological saline after MCA permanent occlusion.
Group 2 consists of animals with the same experimental conditions. Sham indicates sham-operated animals; Rb1(−) indicates animals with cerebral infarction administered with physiological saline; and Rb1(+) indicates animals with cerebral infarction administered intravenously with ginsenoside Rb1. At the 4th hour or the 6th hour after the sham operation and MCA permanent occlusion, animals were anesthetized with chloral hydrate, and the left cerebral cortex (i.e. the cerebral cortex on the side of MCA permanent occlusion) was dissected out and total RNA was prepared for RT-PCR. The mRNA of β-actin was used as the internal standard. […]

[1] = test system: SH-SP rats with MCA permanent occlusion; conditions: cited from earlier work
Bcl-xL = Bcl-xL expression in primary cultured oligodendrocytes (RT-PCR, immunoblotting); assay type: cell-based, rat
Procedure: In order to investigate whether ginsenoside Rb1 enhances the expression of Bcl-xL in oligodendrocytes or not, for example, ginsenoside Rb1 at the concentrations from 1 fg/ml to 10 pg/ml was added to the primary cultured rat oligodendrocytes. After culture for 6 hours, total RNA was extracted and Bcl-xL mRNA was assayed by RT-PCR. β-actin mRNA was used as an internal standard of RT-PCR. Further, a part of oligodendrocytes was used as a sample for SDS electrophoresis after treatment with ginsenoside Rb1, and anti-apoptotic factor Bcl-xL in the culture well was examined by immunoblotting (Western blotting). Oligodendrocytes were isolated from the mixed brain cell culture by using the forebrain of newborn rats.
In order to investigate whether ginsenoside Rb1 enhances the expression of Bcl-xL in oligodendrocytes or not, for example, ginsenoside Rb1 at the concentration from 1 fg/ml to 10 pg/ml was added to the primary cultured rat oligodendrocytes. After culture for 6 hours, Total RNA was extracted and Bcl-xL mRNA was assayed by RT-PCR. β-actin mRNA was used as an internal standard of RT-PCR. Further, a part of oligodendrocytes was used as a sample for SDS electrophoresis after treating with ginsenoside Rb1, and the amount of anti-apoptotic factor Bcl-xL in the culture well was examined by immunoblotting (Western blotting). The mixed brain cell culture was initiated to isolate oligodendrocytes by using the forebrain of newborn rats.

## CC(C)=CCC[C@](C)(O[C@@H]1O[C@H](CO[C@@H]2O[C@H](CO)[C@@H](O)[C@H](O)[C@H]2O)[C@@H](O)[C@H](O)[C@H]1O)[C@H]1CC[C@]2(C)[C@@H]1[C@H](O)C[C@@H]1[C@@]3(C)CC[C@H](O[C@@H]4O[C@H](CO)[C@@H](O)[C@H](O)[C@H]4O[C@@H]4O[C@H](CO)[C@@H](O)[C@H](O)[C@H]4O)C(C)(C)[C@@H]3CC[C@]12C [ginsenoside Rb1]
Bcl-xL mRNA
  expressions of Bcl-xL mRNA in the cerebral cortex: obviously increased
[1]; intracerebroventricular administration after permanent MCA occlusion
  cerebral infarction (infarcted area in the cerebral cortex): significant reduction
[1]; intravenous 6 or 60 μg/day
  secondary lesion (degeneration) of the thalamus: significantly inhibits
[1]; intravenous ginsenoside Rb1 (prior applications)
  mean ratio of cerebrocortical infarction compared with saline group: ≤ 50%
[1]; intravenous infusion for 28 days
  cerebral vessels destroyed after MCA permanent occlusion: regenerated and reconstructed
[1]; repetitive or continuous intravenous 6 μg or 60 μg/day
  cerebral infarct area relative to non-administered group: about ¼
[1]; repetitive or continuous intravenous 6 or 60 μg/day for 28 days after MCA permanent occlusion (prior applications)
  volume/size of cerebral infarct lesion relative to saline (non-administered) group: about ¼
[1]; repetitive or continuous intravenous low doses after permanent MCA occlusion
  reduction of the volume of the cerebral infarct lesions vs control group: ~75%
Bcl-xL; 100 fg/ml, 6 hours, RT-PCR
  expression of Bcl-xL mRNA in oligodendrocytes: obviously enhanced
Bcl-xL; FIG. 23
  concentrations increasing Bcl-xL protein expression in oligodendrocytes: 1 to 100 fg/mL
Bcl-xL; immunoblotting after ginsenoside Rb1 addition
  Bcl-xL protein in oligodendrocytes: increased
